# Test results reported in ChEMBL document CHEMBL1154717.
# Activity calls are given as the source filed them. No cut-off for these calls is given here.
# Target: T1, Tumour suppressor p53/oncoprotein Mdm2 (Homo sapiens) (UniProt P04637+Q00987)
# Assay: Inhibition of MDM2-p53 interaction in human SJSA1 cells expressing wild type p53 assessed as increase in p21 protein level at 10 uM by Western blot
# Type: cell-based
# Details: SJSA-1
# T1 sequence (P04637 whole entry, looked up): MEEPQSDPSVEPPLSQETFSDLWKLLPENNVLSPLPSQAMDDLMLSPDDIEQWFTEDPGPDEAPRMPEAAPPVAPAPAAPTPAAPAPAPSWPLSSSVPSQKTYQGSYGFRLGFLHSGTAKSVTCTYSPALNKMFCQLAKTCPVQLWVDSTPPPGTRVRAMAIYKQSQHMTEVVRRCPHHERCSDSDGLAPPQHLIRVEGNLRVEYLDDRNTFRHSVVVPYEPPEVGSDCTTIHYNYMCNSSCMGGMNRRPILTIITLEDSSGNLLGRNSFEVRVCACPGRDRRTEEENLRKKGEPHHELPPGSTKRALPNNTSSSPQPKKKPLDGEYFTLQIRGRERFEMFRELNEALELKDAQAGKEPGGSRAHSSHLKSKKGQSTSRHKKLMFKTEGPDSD
# T1 sequence (Q00987 whole entry, looked up): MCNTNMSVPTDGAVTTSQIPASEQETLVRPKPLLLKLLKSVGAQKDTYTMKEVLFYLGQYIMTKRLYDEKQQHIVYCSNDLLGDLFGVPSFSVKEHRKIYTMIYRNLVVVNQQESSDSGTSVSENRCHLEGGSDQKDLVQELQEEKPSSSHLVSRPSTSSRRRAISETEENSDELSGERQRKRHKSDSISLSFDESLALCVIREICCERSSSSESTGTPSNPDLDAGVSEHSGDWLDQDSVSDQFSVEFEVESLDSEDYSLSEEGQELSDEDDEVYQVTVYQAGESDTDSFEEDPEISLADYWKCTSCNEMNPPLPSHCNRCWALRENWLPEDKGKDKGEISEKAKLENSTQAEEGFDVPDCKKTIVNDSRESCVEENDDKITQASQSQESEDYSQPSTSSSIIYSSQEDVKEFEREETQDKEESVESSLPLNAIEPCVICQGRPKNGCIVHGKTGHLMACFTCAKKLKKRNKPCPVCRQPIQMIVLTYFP
row,Compound,Activity
1,COc1ccc2c(c1)NC(=O)[C@]21[C@@H](CC(C)(C)C)N[C@@H](C(=O)N(C)C)[C@@H]1c1cccc(Br)c1,inactive

# Test system: Rattus norvegicus
# Assay: AUC (0 to t) in Sprague-Dawley rat at 25 mg/kg, po
# Type: ADME, organism-based, Plasma
# Parameters: dose 25 mg/kg, route oral
# Details: in vivo
row,Compound,AUC [ng·h/mL]
1,CC(C)(C)C[C@H]1N[C@@H](C(=O)NCC[C@@H](O)CO)[C@H](c2cccc(Cl)c2)[C@@]12C(=O)Nc1cc(Cl)c(F)cc12,11700

# Test system: not listed separately
# Assay: Cmax in Sprague-Dawley rat at 25 mg/kg, po
# Type: ADME, organism-based
# Parameters: dose 25 mg/kg, route oral
# Details: in vivo
row,Compound,Cmax [ng/mL]
1,CN1CCN(CCNC(=O)[C@@H]2N[C@H](CC(C)(C)C)[C@]3(C(=O)Nc4cc(Cl)ccc43)[C@H]2c2cccc(Cl)c2F)CC1,274
2,CN1CCC(CCNC(=O)[C@@H]2N[C@H](CC(C)(C)C)[C@]3(C(=O)Nc4cc(Cl)ccc43)[C@H]2c2cccc(Cl)c2F)CC1,120
3,CC(C)(C)C[C@H]1N[C@@H](C(=O)NCC[C@@H](O)CO)[C@H](c2cccc(Cl)c2)[C@@]12C(=O)Nc1cc(Cl)c(F)cc12,3550
4,CC(C)(C)C[C@H]1N[C@@H](C(=O)NCC[C@H](O)CO)[C@H](c2cccc(Cl)c2)[C@@]12C(=O)Nc1cc(Cl)ccc12,805
5,CC(C)(C)C[C@H]1N[C@@H](C(=O)NCCN2CCOCC2)[C@H](c2cccc(Cl)c2F)[C@@]12C(=O)Nc1cc(Cl)ccc12,248
6,CC(C)(C)C[C@H]1N[C@@H](C(=O)NC[C@H](O)CO)[C@H](c2cccc(Cl)c2)[C@@]12C(=O)Nc1cc(Cl)c(F)cc12,2070
7,COCCOCCNC(=O)[C@@H]1N[C@H](CC(C)(C)C)[C@]2(C(=O)Nc3cc(Cl)ccc32)[C@H]1c1cccc(Cl)c1F,97
8,CC(C)(C)C[C@H]1N[C@@H](C(=O)NCC[C@H](O)CO)[C@H](c2cccc(Cl)c2)[C@@]12C(=O)Nc1cc(Cl)c(F)cc12,3750

# Test system: HCT-116
# Assay: cells
# Details: Homo sapiens, HCT-116, 96 h
row,Compound,IC50 [µM]
1,CN1CCN(CCNC(=O)[C@@H]2N[C@H](CC(C)(C)C)[C@]3(C(=O)Nc4cc(Cl)ccc43)[C@H]2c2cccc(Cl)c2F)CC1,0.4
2,CN1CCC(CCNC(=O)[C@@H]2N[C@H](CC(C)(C)C)[C@]3(C(=O)Nc4cc(Cl)ccc43)[C@H]2c2cccc(Cl)c2F)CC1,0.4
3,CC(C)(C)C[C@H]1N[C@@H](C(=O)NCC[C@@H](O)CO)[C@H](c2cccc(Cl)c2)[C@@]12C(=O)Nc1cc(Cl)c(F)cc12,2.8
4,CC(C)(C)C[C@H]1N[C@@H](C(=O)NCC[C@H](O)CO)[C@H](c2cccc(Cl)c2)[C@@]12C(=O)Nc1cc(Cl)ccc12,0.8
5,CC(C)(C)C[C@H]1N[C@@H](C(=O)NCCN2CCOCC2)[C@H](c2cccc(Cl)c2F)[C@@]12C(=O)Nc1cc(Cl)ccc12,0.7
6,CC(C)(C)C[C@H]1N[C@@H](C(=O)NC[C@H](O)CO)[C@H](c2cccc(Cl)c2)[C@@]12C(=O)Nc1cc(Cl)c(F)cc12,1.3
7,COCCOCCNC(=O)[C@@H]1N[C@H](CC(C)(C)C)[C@]2(C(=O)Nc3cc(Cl)ccc32)[C@H]1c1cccc(Cl)c1F,0.8
8,CC(C)(C)C[C@H]1N[C@@H](C(=O)NCC[C@H](O)CO)[C@H](c2cccc(Cl)c2)[C@@]12C(=O)Nc1cc(Cl)c(F)cc12,1.1
9,CC(C)(C)C[C@H]1N[C@@H](C(=O)NCC[C@H](O)CO)[C@H](c2cccc(Cl)c2F)[C@@]12C(=O)Nc1cc(Cl)ccc12,0.4

# Test system: Mus musculus
# Assay: Toxicity in mouse xenografted with human SJSA1 cells assessed as weight loss at 300 mg/kg, po qd for 14 days relative to untreated control
# Type: organism-based, SJSA-1
# Parameters: dose 300 mg/kg, route oral
# Details: in vivo, 336 h
row,Compound,Activity
1,CC(C)(C)C[C@H]1N[C@@H](C(=O)NCC[C@H](O)CO)[C@H](c2cccc(Cl)c2F)[C@@]12C(=O)Nc1cc(Cl)ccc12,Non-toxic

# Target: T1, Tumour suppressor p53/oncoprotein Mdm2 (Homo sapiens)
# Assay: Inhibition of MDM2-p53 interaction in human SJSA1 cells expressing wild type p53 assessed as increase in MDM2 protein level at 10 uM by Western blot
# Type: cell-based
# Details: SJSA-1
row,Compound,Activity
1,COc1ccc2c(c1)NC(=O)[C@]21[C@@H](CC(C)(C)C)N[C@@H](C(=O)N(C)C)[C@@H]1c1cccc(Br)c1,inactive

# Test system: SJSA-1
# Assay: Induction of cell death in human SJSA1 cells by trypan blue staining
# Type: functional, cell-based
# Details: not given
row,Compound,Activity
1,CC(C)(C)C[C@H]1N[C@@H](C(=O)NCC[C@H](O)CO)[C@H](c2cccc(Cl)c2)[C@@]12C(=O)Nc1cc(Cl)c(F)cc12,Dose-dependent effect
2,CC(C)(C)C[C@H]1N[C@@H](C(=O)NCC[C@H](O)CO)[C@H](c2cccc(Cl)c2F)[C@@]12C(=O)Nc1cc(Cl)ccc12,Dose-dependent effect

# Test system: HCT-116
# Assay: cells
# Details: Homo sapiens, HCT-116, 96 h
# Remark: another data set of the same source
row,Compound,IC50 [µM]
1,CN1CCC(CCNC(=O)[C@@H]2N[C@H](CC(C)(C)C)[C@]3(C(=O)Nc4cc(Cl)ccc43)[C@H]2c2cccc(Cl)c2F)CC1,7.3
2,CC(C)(C)C[C@H]1N[C@@H](C(=O)NCC[C@@H](O)CO)[C@H](c2cccc(Cl)c2)[C@@]12C(=O)Nc1cc(Cl)c(F)cc12,32.8
3,CC(C)(C)C[C@H]1N[C@@H](C(=O)NC[C@H](O)CO)[C@H](c2cccc(Cl)c2)[C@@]12C(=O)Nc1cc(Cl)c(F)cc12,23.6
4,CC(C)(C)C[C@H]1N[C@@H](C(=O)NCC[C@H](O)CO)[C@H](c2cccc(Cl)c2)[C@@]12C(=O)Nc1cc(Cl)c(F)cc12,24.8
5,CC(C)(C)C[C@H]1N[C@@H](C(=O)NCC[C@H](O)CO)[C@H](c2cccc(Cl)c2F)[C@@]12C(=O)Nc1cc(Cl)ccc12,16

# Test system: SJSA-1
# Assay: Induction of cell death in human SJSA1 cells at 1. 25 uM after 2 days by trypan blue staining
# Type: functional
# Details: not given
row,Compound,Activity [%]
1,CC(C)(C)C[C@H]1N[C@@H](C(=O)NCC[C@H](O)CO)[C@H](c2cccc(Cl)c2)[C@@]12C(=O)Nc1cc(Cl)c(F)cc12,20
2,CC(C)(C)C[C@H]1N[C@@H](C(=O)NCC[C@H](O)CO)[C@H](c2cccc(Cl)c2F)[C@@]12C(=O)Nc1cc(Cl)ccc12,50

# Test system: not listed separately
# Assay: Cmax in Sprague-Dawley rat at 50 mg/kg, po
# Type: ADME, organism-based
# Parameters: dose 50 mg/kg, route oral
# Details: in vivo
row,Compound,Cmax [ng/mL]
1,CC(C)(C)C[C@H]1N[C@@H](C(=O)NCC[C@H](O)CO)[C@H](c2cccc(Cl)c2F)[C@@]12C(=O)Nc1cc(Cl)ccc12,1510

# Test system: not listed separately
# Assay: Oral bioavailability in Sprague-Dawley rat at 25 mg/kg
# Type: ADME, organism-based
# Details: in vivo
row,Compound,bioavailability [%]
1,CN1CCN(CCNC(=O)[C@@H]2N[C@H](CC(C)(C)C)[C@]3(C(=O)Nc4cc(Cl)ccc43)[C@H]2c2cccc(Cl)c2F)CC1,31
2,CN1CCC(CCNC(=O)[C@@H]2N[C@H](CC(C)(C)C)[C@]3(C(=O)Nc4cc(Cl)ccc43)[C@H]2c2cccc(Cl)c2F)CC1,14
3,CC(C)(C)C[C@H]1N[C@@H](C(=O)NCC[C@@H](O)CO)[C@H](c2cccc(Cl)c2)[C@@]12C(=O)Nc1cc(Cl)c(F)cc12,31
4,CC(C)(C)C[C@H]1N[C@@H](C(=O)NCC[C@H](O)CO)[C@H](c2cccc(Cl)c2)[C@@]12C(=O)Nc1cc(Cl)ccc12,19
5,CC(C)(C)C[C@H]1N[C@@H](C(=O)NCCN2CCOCC2)[C@H](c2cccc(Cl)c2F)[C@@]12C(=O)Nc1cc(Cl)ccc12,10
6,CC(C)(C)C[C@H]1N[C@@H](C(=O)NC[C@H](O)CO)[C@H](c2cccc(Cl)c2)[C@@]12C(=O)Nc1cc(Cl)c(F)cc12,18
7,COCCOCCNC(=O)[C@@H]1N[C@H](CC(C)(C)C)[C@]2(C(=O)Nc3cc(Cl)ccc32)[C@H]1c1cccc(Cl)c1F,5
8,CC(C)(C)C[C@H]1N[C@@H](C(=O)NCC[C@H](O)CO)[C@H](c2cccc(Cl)c2)[C@@]12C(=O)Nc1cc(Cl)c(F)cc12,65

# Test system: Rattus norvegicus
# Assay: AUC (0 to t) in Sprague-Dawley rat at 50 mg/kg, po
# Type: ADME, organism-based, Plasma
# Parameters: dose 50 mg/kg, route oral
# Details: in vivo
row,Compound,AUC [ng·h/mL]
1,CC(C)(C)C[C@H]1N[C@@H](C(=O)NCC[C@H](O)CO)[C@H](c2cccc(Cl)c2F)[C@@]12C(=O)Nc1cc(Cl)ccc12,8770

# Test system: Mus musculus
# Assay: Toxicity in mouse xenografted with human SJSA1 cells assessed as occurrence of toxicity symptoms at 300 mg/kg, po qd for 14 days relative to untreated control
# Type: organism-based, SJSA-1
# Parameters: dose 300 mg/kg, route oral
# Details: in vivo, 336 h
row,Compound,Activity
1,CC(C)(C)C[C@H]1N[C@@H](C(=O)NCC[C@H](O)CO)[C@H](c2cccc(Cl)c2F)[C@@]12C(=O)Nc1cc(Cl)ccc12,Non-toxic

# Test system: not listed separately
# Assay: Oral bioavailability in Sprague-Dawley rat at 50 mg/kg
# Type: ADME, organism-based
# Details: in vivo
row,Compound,bioavailability [%]
1,CC(C)(C)C[C@H]1N[C@@H](C(=O)NCC[C@H](O)CO)[C@H](c2cccc(Cl)c2F)[C@@]12C(=O)Nc1cc(Cl)ccc12,21

# Test system: not listed separately
# Assay: Terminal half life in Sprague-Dawley rat at 50 mg/kg, po
# Type: ADME, organism-based
# Parameters: dose 50 mg/kg, route oral
# Details: in vivo, read-out: beta t1/2 (converted)
row,Compound,half-life [h]
1,CC(C)(C)C[C@H]1N[C@@H](C(=O)NCC[C@H](O)CO)[C@H](c2cccc(Cl)c2F)[C@@]12C(=O)Nc1cc(Cl)ccc12,3.9

# Test system: not listed separately
# Assay: Terminal half life in Sprague-Dawley rat at 25 mg/kg, po
# Type: ADME, organism-based
# Parameters: dose 25 mg/kg, route oral
# Details: in vivo, read-out: beta t1/2 (converted)
row,Compound,half-life [h]
1,CN1CCN(CCNC(=O)[C@@H]2N[C@H](CC(C)(C)C)[C@]3(C(=O)Nc4cc(Cl)ccc43)[C@H]2c2cccc(Cl)c2F)CC1,3.8
2,CN1CCC(CCNC(=O)[C@@H]2N[C@H](CC(C)(C)C)[C@]3(C(=O)Nc4cc(Cl)ccc43)[C@H]2c2cccc(Cl)c2F)CC1,7.1
3,CC(C)(C)C[C@H]1N[C@@H](C(=O)NCC[C@@H](O)CO)[C@H](c2cccc(Cl)c2)[C@@]12C(=O)Nc1cc(Cl)c(F)cc12,3.4
4,CC(C)(C)C[C@H]1N[C@@H](C(=O)NCC[C@H](O)CO)[C@H](c2cccc(Cl)c2)[C@@]12C(=O)Nc1cc(Cl)ccc12,3
5,CC(C)(C)C[C@H]1N[C@@H](C(=O)NCCN2CCOCC2)[C@H](c2cccc(Cl)c2F)[C@@]12C(=O)Nc1cc(Cl)ccc12,1.3
6,CC(C)(C)C[C@H]1N[C@@H](C(=O)NC[C@H](O)CO)[C@H](c2cccc(Cl)c2)[C@@]12C(=O)Nc1cc(Cl)c(F)cc12,3.2
7,COCCOCCNC(=O)[C@@H]1N[C@H](CC(C)(C)C)[C@]2(C(=O)Nc3cc(Cl)ccc32)[C@H]1c1cccc(Cl)c1F,1.2
8,CC(C)(C)C[C@H]1N[C@@H](C(=O)NCC[C@H](O)CO)[C@H](c2cccc(Cl)c2)[C@@]12C(=O)Nc1cc(Cl)c(F)cc12,1.4

# Test system: SAOS-2
# Assay: Induction of cell death in human Saos2 cells deficient in wild type p53 at 10 uM by trypan blue staining
# Type: functional, cell-based
# Details: not given
row,Compound,Activity
1,CC(C)(C)C[C@H]1N[C@@H](C(=O)NCC[C@H](O)CO)[C@H](c2cccc(Cl)c2F)[C@@]12C(=O)Nc1cc(Cl)ccc12,inactive
